In PubChem BioAssay (NCI):
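Five compound concentrations were applied to cells in 96-well plates for 48 hours; endpoints were derived by simple linear interpolation of the resulting dose-response curve. GI50 is the concentration that inhibits growth by half. TGI: concentration producing complete growth inhibition.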

System: NCI-H226 lung
Test: NCI tumour cell line growth inhibition, 48 h

Row | Structure (SMILES) | TGI [µM] | GI50 [µM]
1 | CC1(C)[C@@H](Cn2cc(I)c(=O)[nH]c2=O)CC[C@@]1(C)CO | > 100 | 
2 | CC#Cc1ccc(-c2ccccc2)s1 | > 100 | 
3 | CCNC(=O)C#Cc1ccc2c(C(=Nc3ccc(CN(C)C)cc3)c3ccccc3)c(O)[nH]c2c1 | > 10 | 0.314
4 | NC(=S)N/N=C1\c2cc(Cl)ccc2-c2c1cc(Cl)cc2[N+](=O)[O-] | > 100 | 5.25

System: UACC-62 melanoma
Test: NCI tumour cell line growth inhibition, 48 h

Row | Structure (SMILES) | TGI [µM] | GI50 [µM]
5 | CC1(C)[C@@H](Cn2cc(I)c(=O)[nH]c2=O)CC[C@@]1(C)CO | > 100 | 
6 | CC#Cc1ccc(-c2ccccc2)s1 | > 100 | 
7 | CCNC(=O)C#Cc1ccc2c(C(=Nc3ccc(CN(C)C)cc3)c3ccccc3)c(O)[nH]c2c1 | 0.0775 | 0.00709
8 | N#Cc1nc(-c2cnccn2)oc1N | > 100 | 
9 | NC(=S)N/N=C1\c2cc(Cl)ccc2-c2c1cc(Cl)cc2[N+](=O)[O-] | > 100 | 3.16

System: HCT-116 colon
Test: NCI tumour cell line growth inhibition, 48 h

Row | Structure (SMILES) | TGI [µM] | GI50 [µM]
10 | CC1(C)[C@@H](Cn2cc(I)c(=O)[nH]c2=O)CC[C@@]1(C)CO | > 100 | 
11 | CC#Cc1ccc(-c2ccccc2)s1 | > 100 | 
12 | CCNC(=O)C#Cc1ccc2c(C(=Nc3ccc(CN(C)C)cc3)c3ccccc3)c(O)[nH]c2c1 | 1.07 | 0.0147
13 | O=C1c2cc3c(cc2CC12Cc1ccc4c(c1C2=O)CCC4)CCCC3 (stereo not drawn) | > 100 | 
14 | N#Cc1nc(-c2cnccn2)oc1N | > 100 | 
15 | NC(=S)N/N=C1\c2cc(Cl)ccc2-c2c1cc(Cl)cc2[N+](=O)[O-] | 27.4 | 2.89

System: HT29 colon
Test: NCI tumour cell line growth inhibition, 48 h

Row | Structure (SMILES) | TGI [µM] | GI50 [µM]
16 | CC#Cc1ccc(-c2ccccc2)s1 | > 100 | 
17 | CCNC(=O)C#Cc1ccc2c(C(=Nc3ccc(CN(C)C)cc3)c3ccccc3)c(O)[nH]c2c1 | 1.39 | 0.013
18 | O=C1c2cc3c(cc2CC12Cc1ccc4c(c1C2=O)CCC4)CCCC3 (stereo not drawn) | > 100 | 
19 | N#Cc1nc(-c2cnccn2)oc1N | > 100 | 
20 | NC(=S)N/N=C1\c2cc(Cl)ccc2-c2c1cc(Cl)cc2[N+](=O)[O-] | 61.2 | 10

System: HS 578T breast
Test: NCI tumour cell line growth inhibition, 48 h

Row | Structure (SMILES) | TGI [µM] | GI50 [µM]
21 | CC1(C)[C@@H](Cn2cc(I)c(=O)[nH]c2=O)CC[C@@]1(C)CO | > 100 | 
22 | CC#Cc1ccc(-c2ccccc2)s1 | > 100 | 
23 | CCNC(=O)C#Cc1ccc2c(C(=Nc3ccc(CN(C)C)cc3)c3ccccc3)c(O)[nH]c2c1 | 1.66 | 0.291
24 | O=C1c2cc3c(cc2CC12Cc1ccc4c(c1C2=O)CCC4)CCCC3 (stereo not drawn) | > 100 | 
25 | N#Cc1nc(-c2cnccn2)oc1N | > 100 | 
26 | NC(=S)N/N=C1\c2cc(Cl)ccc2-c2c1cc(Cl)cc2[N+](=O)[O-] | > 100 | 18.8

System: OVCAR-3 ovarian
Test: NCI tumour cell line growth inhibition, 48 h

Row | Structure (SMILES) | TGI [µM] | GI50 [µM]
27 | CC1(C)[C@@H](Cn2cc(I)c(=O)[nH]c2=O)CC[C@@]1(C)CO | > 100 | 
28 | CC#Cc1ccc(-c2ccccc2)s1 | > 100 | 
29 | CCNC(=O)C#Cc1ccc2c(C(=Nc3ccc(CN(C)C)cc3)c3ccccc3)c(O)[nH]c2c1 | > 10 | 0.752
30 | O=C1c2cc3c(cc2CC12Cc1ccc4c(c1C2=O)CCC4)CCCC3 (stereo not drawn) | > 100 | 
31 | NC(=S)N/N=C1\c2cc(Cl)ccc2-c2c1cc(Cl)cc2[N+](=O)[O-] | 40.8 | 4.66

System: T-47D breast
Test: NCI tumour cell line growth inhibition, 48 h

Row | Structure (SMILES) | TGI [µM] | GI50 [µM]
32 | CC1(C)[C@@H](Cn2cc(I)c(=O)[nH]c2=O)CC[C@@]1(C)CO | > 100 | 
33 | CCNC(=O)C#Cc1ccc2c(C(=Nc3ccc(CN(C)C)cc3)c3ccccc3)c(O)[nH]c2c1 | > 6.87 | 3.21
34 | O=C1c2cc3c(cc2CC12Cc1ccc4c(c1C2=O)CCC4)CCCC3 (stereo not drawn) | > 100 | 
35 | NC(=S)N/N=C1\c2cc(Cl)ccc2-c2c1cc(Cl)cc2[N+](=O)[O-] | 7.65 | 2.07

System: SF-295 CNS
Test: NCI tumour cell line growth inhibition, 48 h

Row | Structure (SMILES) | TGI [µM] | GI50 [µM]
36 | CC1(C)[C@@H](Cn2cc(I)c(=O)[nH]c2=O)CC[C@@]1(C)CO | > 100 | 
37 | CC#Cc1ccc(-c2ccccc2)s1 | > 100 | 
38 | CCNC(=O)C#Cc1ccc2c(C(=Nc3ccc(CN(C)C)cc3)c3ccccc3)c(O)[nH]c2c1 | 3.31 | 0.249
